Data set [1] has as its target T1, human V2 receptor (Homo sapiens, UniProt P30518).
T1 construct: expressed in transfected cells; host or cells: CHO K1 (ATCC), constitutively expressing modified aequorin, co-transfected with promiscuous G-alpha-16
The data set is described as follows: Cellular in vitro assay for determining the vasopressin receptor activity (aequorin luminescence, recombinant CHO cells), human V2. The note with it: CHO cells expressing aequorin and Gα16, transfected with human V2 receptor; agonist [Arg8]-vasopressin; read-out: IC50 hV2. It is filed as cell-based. The text has this:
(§1) B-1. Cellular In Vitro Assay for Determining the Vasopressin Receptor Activity
(§2) The identification of agonists and antagonists of the V1a and V2 vasopressin receptors from humans and rats and also the quantification of the activity of the substances described here takes place using recombinant cell lines. These cells derive originally from a hamster's ovary epithelial cell (Chinese Hamster Ovary, CHO K1, ATCC: American Type Culture Collection, Manassas, Va. 20108, USA). The test cell lines constitutively express a modified form of the calcium-sensitive photoprotein aequorin, which, after reconstitution with the cofactor coelenterazine, emits light when there are increases in the free calcium concentration (Rizzuto R., Simpson A. W., Brini M., Pozzan T.; Nature 358 (1992) 325-327). In addition, the cells are stably transfected with the human or rat V1a or V2 receptors. In the case of the Gs-coupling V2 receptors, the cells are stably transfected with a further gene, which codes for the promiscuous Gα16 protein (Amatruda T. T., Steele D. A., Slepak V. Z., Simon M A., Proc. Na. Acad. Sci. USA 88 (1991), 5587-5591), either independently or as a fusion gene. The resulting vasopressin receptor test cells react to stimulation of the recombinantly expressed vasopressin receptors by intracellular release of calcium ions, which can be quantified by the resulting aequorin luminescence using a suitable luminometer (Milligan G., Marshall F., Rees S., Trends in Pharmaco. Sci. 17 (1996) 235-237).
(§3) On the day before the assay, the cells are plated out in culture medium (DMEM, 10% FCS, 2 mM glutamine, 10 mM HEPES) in 384-well microtiter plates and kept in a cell incubator (96% atmospheric humidity, 5% v/v carbon dioxide, 37° C.). On the day of the assay, the culture medium is replaced by a Tyrode solution (140 mM sodium chloride, 5 mM potassium chloride, 1 mM magnesium chloride, 2 mM calcium chloride, 20 mM glucose, 20 mM HEPES), which additionally contains the cofactor coelenterazine (50 μM), and the microtiter plate is then incubated for a further 3-4 hours. The test substances in various concentrations are placed for 10 to 20 minutes in the wells of the microtiter plate before the agonist [Arg8]-vasopressin is added, and the resulting light signal is measured immediately in the luminometer. The IC50 values are calculated using the GraphPad PRISM computer program (Version 3.02).
(§4) Table A below lists representative IC50 values for the compounds according to the invention transfected with the human V1a or V2 receptor: […]

Data set [2] addresses T2, human V1a receptor (Homo sapiens, UniProt P37288).
T2 construct: expressed in transfected cells; host or cells: CHO K1 (ATCC), constitutively expressing modified aequorin
The data set is described as follows: Cellular in vitro assay for determining the vasopressin receptor activity (aequorin luminescence, recombinant CHO cells), human V1a. It is filed as cell-based. The note with it: CHO cells expressing aequorin, transfected with human V1a receptor; agonist [Arg8]-vasopressin; read-out: IC50 hV1a.
Description: as §1, §2, §3, §4

Data set [3] is described as follows: Determination of the solubility. It is filed as physicochemical. As to conditions: aqueous buffer, kinetic from dmso stock; PBS buffer pH 6.5, 20° C., 24 hours shaking, from DMSO solution. The method, then: B-6. Determination of the Solubility
Reagents Required: • PBS buffer pH 6.5: 90.00 g of NaCl p.a. (for example from Merck, Art. No. 1.06404.1000), 13.61 g of KH2PO4 p.a. (for example from Merck, Art. No. 1.04873.1000) and 83.35 g of 1N aqueous sodium hydroxide solution (for example from Bernd Kraft GmbH, Art. No. 01030.4000) are weighed into a 1 liter measuring flask, the flask is filled with distilled water to 1 liter and the mixture is stirred for 1 hour. Using 1N hydrochloric acid (for example from Merck, Art. No. 1.09057.1000) the pH is then adjusted to 6.5. • PEG/water solution (30:70 v/v): 30 ml of polyethylene glycol 400 (for example from Merck, Art. No. 8.17003.1000) and 70 ml of distilled water are homogenized in a 100 ml measuring flask. • PEG/PBS buffer pH 6.5 (80:20 v/v): 80 ml of polyethylene glycol 400 (for example from Merck, Art. No. 8.17003.1000) and 20 ml of PBS buffer pH 6.5 are homogenized in a 100 ml measuring flask. • Dimethyl sulphoxide (for example from Baker, Art. No. 7157.2500) • Distilled water.
Preparation of the Starting Solution (Original Solution):
At least 4 mg of the test substance are weighed accurately into a wide-necked 10 mm screw V vial (from Glastechnik Gräfenroda GmbH, Art. No. 8004-WM-H/V150 with fitting screw cap and septum, in a pipetting robot DMSO is added to a concentration of 50 mg/ml and the mixture is shaken for 10 minutes.
Preparation of the Calibration Solutions:
Preparation of the starting solution for calibration solutions (stock solution): With the aid of a pipetting robot, 10 μl of the original solution are transferred into a microtiter plate and made up with DMSO to a concentration of 600 μg/ml. The sample is shaken until everything has gone into solution.
Calibration solution 1 (20 μg/ml): 1000 μl of DMSO are added to 34.4 μl of the stock solution, and the mixture is homogenized.
Calibration solution 2 (2.5 μg/ml): 700 μl of DMSO are added to 100 μl of calibration solution 1, and the mixture is homogenized.
Preparation of the Sample Solutions:
Sample solution for solubilities of up to 5 g/liter in PBS buffer pH 6.5: 10 μl of the original solution are transferred into a microtiter plate, and 1000 μl of PBS buffer pH 6.5 are added.
The sample solutions prepared in this manner are shaken at 1400 rpm in a temperature-adjustable shaker (for example Eppendorf Thermomixer comfort Art. No. 5355 000.011 with interchangeable block Art. No. 5362.000.019) at 20° C. for 24 hours. In each case 180 μl are taken from these solutions and transferred into Beckman Polyallomer Centrifuge Tubes (Art. No. 343621). These solutions are centrifuged at about 223 000×g for one hour (for example Beckman Optima L-90K Ultracentrifuge with Type 42.2 Ti Rotor at 42 000 rpm). From each of the sample solutions, 100 μl of the supernatant are removed and diluted 1:5 and 1:100 with DMSO. From each dilution, a sample is transferred into a vessel suitable for HPLC analysis.
The samples are analysed by RP-HPLC. Quantification is carried out using a two-point calibration curve of the test compound in DMSO. The solubility is expressed in mg/liter. Analysis sequence: 1) calibration solution […]; 2) calibration solution 20 μg/ml; 3) sample solution 1:5; 4) sample solution 1:100.
Agilent 1100 with DAD (G1315A), quat. pump (G1311A), autosampler CTC HTS PAL, degasser (G1322A) and column thermostat (G1316A); column: Phenomenex Gemini C18, 50 mm×2 mm, 5μ; temperature: 40° C.; mobile phase A: water/phosphoric acid pH 2; mobile phase B: acetonitrile; flow rate: 0.7 ml/min; gradient: 0-0.5 min 85% A, 15% B; ramp: 0.5-3 min 10% A, 90% B; 3-3.5 min 10% A, 90% B; ramp: 3.5-4 min 85% A, 15% B; 4-5 min 85% A, 15% B. […]

≈ marks a conversion by molar mass, not a printed value.

T2 sequence (P37288 whole entry): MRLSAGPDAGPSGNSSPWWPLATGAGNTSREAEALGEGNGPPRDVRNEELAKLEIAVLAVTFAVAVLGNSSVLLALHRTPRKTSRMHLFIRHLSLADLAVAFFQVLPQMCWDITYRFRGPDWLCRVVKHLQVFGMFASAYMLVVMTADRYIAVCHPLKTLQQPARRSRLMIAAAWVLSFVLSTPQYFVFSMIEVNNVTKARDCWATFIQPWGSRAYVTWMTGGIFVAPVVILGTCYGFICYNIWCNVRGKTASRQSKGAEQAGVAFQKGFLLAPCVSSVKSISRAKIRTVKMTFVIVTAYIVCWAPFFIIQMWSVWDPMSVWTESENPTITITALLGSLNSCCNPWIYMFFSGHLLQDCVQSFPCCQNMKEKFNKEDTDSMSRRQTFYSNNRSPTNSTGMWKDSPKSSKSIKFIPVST
T1 sequence (P30518 whole entry): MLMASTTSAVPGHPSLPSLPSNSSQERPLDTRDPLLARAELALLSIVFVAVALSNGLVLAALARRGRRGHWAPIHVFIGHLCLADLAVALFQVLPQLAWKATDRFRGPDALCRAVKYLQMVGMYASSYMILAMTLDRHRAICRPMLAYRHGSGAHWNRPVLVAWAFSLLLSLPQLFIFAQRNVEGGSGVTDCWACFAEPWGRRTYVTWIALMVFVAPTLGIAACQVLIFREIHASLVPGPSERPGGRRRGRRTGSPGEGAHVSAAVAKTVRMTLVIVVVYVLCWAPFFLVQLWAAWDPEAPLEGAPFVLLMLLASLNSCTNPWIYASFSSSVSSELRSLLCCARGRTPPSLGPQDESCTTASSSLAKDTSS

Usually IC50 stands for the concentration needed to halve the response being measured. In general, solubility refers to how much of the substance goes into solution per volume. Regarding `O=C(Cn1nc(-c2ccc(Cl)cc2)n(C2CC2)c1=O)NC(C(=O)NC1(C(=O)O)CC1)c1cccc(C(F)(F)F)c1` (racemic) [Example 6, 1-({({[3-(4-Chlorophenyl)-4-cyclopropyl-5-oxo-4,5-dihydro-1H-1,2,4-triazol-1-yl]acetyl}-amino)[3-(trifluoromethyl)phenyl}acetyl]amino)cyclopropanecarboxylic acid], the figures for the IC50 in data set [1] and in data set [2] were 324 nM and 47 nM, respectively. Moreover, the concentration in solution in data set [3] (solubility at 24 h) was 340 µg/mL (≈ 588 µM).
The like results for `COCCn1c(-c2ccc(Cl)s2)nn(CC(=O)NC(C(=O)NC(C)(C)C(=O)O)c2cccc(C(F)(F)F)c2)c1=O` (racemic) [Example 10, N-{({[3-(5-Chloro-2-thienyl)-4-(2-methoxyethyl)-5-oxo-4,5-dihydro-1H-1,2,4-triazol-1-yl]acetyl}-amino) [3-(trifluoromethyl)phenyl}acetyl]-2-methylalanine] were, in that order, 960 nM, 150 nM and 360 µg/mL (≈ 596 µM).
The like results for `CC(C)(NC(=O)C(NC(=O)Cn1nc(-c2ccc(Cl)cc2)n(/C=C/C(F)(F)F)c1=O)c1ccccc1C(F)(F)F)C(N)=O` (racemic) [Example 31, N^2-{[({3-(4-Chlorophenyl)-5-oxo-4-[(1E)-3,3,3-trifluoroprop-1-en-1-yl]-4,5-dihydro-1H-1,2,4-triazol-1-yl}acetyl)amino][2-(trifluoromethyl)phenyl]acetyl}-2-methylalaninamide] were, in that order, 1180 nM, 7.8 nM and 110 µg/mL (≈ 174 µM).
The like results for `CC(C)(NC(=O)[C@](C)(NC(=O)Cn1nc(-c2ccc(Cl)cc2)n(C[C@H](O)C(F)(F)F)c1=O)c1cccc(C(F)(F)F)c1)C(=O)O` [Example 21, N-{(2R)-2-[({3-(4-Chlorophenyl)-5-oxo-4-[(2S)-3,3,3-trifluoro-2-hydroxypropyl]-4,5-dihydro-1H-1,2,4-triazol-1-yl}acetyl)amino]-2-[3-(trifluoromethyl)phenyl]propanoyl}-2-methylalanine] were, in that order, 0.8 nM, 1 nM and 360 µg/mL (≈ 541 µM).
For `O=C(Cn1nc(-c2ccc(Cl)cc2)n(C[C@H](O)C(F)(F)F)c1=O)NC(C(=O)NCCO)c1cccc(OC(F)(F)F)c1` (stereo partly drawn) [Example 52, 2-[({3-(4-Chlorophenyl)-5-oxo-4-[(2S)-3,3,3-trifluoro-2-hydroxypropyl]-4,5-dihydro-1H-1,2,4-triazol-1-yl}acetyl)amino]-N-(2-hydroxyethyl)-2-[3-(trifluoromethoxy)phenyl]acetamide], the IC50 in data set [1] was 42 nM; in data set [2], 9.7 nM. This compound returned a solubility at 24 h in data set [3] of 100 µg/mL (≈ 160 µM).
Regarding `O=C(C[C@H](NC(=O)Cn1nc(-c2ccc(Cl)cc2)n(C[C@H](O)C(F)(F)F)c1=O)c1cccc(C(F)(F)F)c1)NCCO` [Example 54, (3S)-3-[({3-(4-Chlorophenyl)-5-oxo-4-[(2S)-3,3,3-trifluoro-2-hydroxypropyl]-4,5-dihydro-1H-1,2,4-triazol-1-yl}acetyl)amino]-N-(2-hydroxyethyl)-3-[3-(trifluoromethyl)phenyl]propanamide], the IC50 in data set [1] was determined as 2.6 nM; in data set [2], 3.8 nM. For the same compound, in data set [3], the concentration in solution (solubility at 24 h) was 400 µg/mL (≈ 641 µM).

Values taken from patent US9034855B2, “Substituted phenylacetate and phenylpropane amides and use thereof” (Bayer Intellectual Property GmbH, priority 2010, dated 2015).
